Measurements: paper PMC3726613, “Bacterial Cyclic AMP-Phosphodiesterase Activity Coordinates Biofilm Formation” (PLoS ONE, 2013)

Target: T1, CpdS (SMA3506), CpdS-His8 (Serratia ureilytica, UniProt A0A9X9G1H8)
T1 construct: gene cpdA
Experiment: bis-pNPP hydrolysis assay
Format: biochemical
Details: read-out: 50% reduction in the activity

T1 sequence (A0A9X9G1H8 entry or part of it): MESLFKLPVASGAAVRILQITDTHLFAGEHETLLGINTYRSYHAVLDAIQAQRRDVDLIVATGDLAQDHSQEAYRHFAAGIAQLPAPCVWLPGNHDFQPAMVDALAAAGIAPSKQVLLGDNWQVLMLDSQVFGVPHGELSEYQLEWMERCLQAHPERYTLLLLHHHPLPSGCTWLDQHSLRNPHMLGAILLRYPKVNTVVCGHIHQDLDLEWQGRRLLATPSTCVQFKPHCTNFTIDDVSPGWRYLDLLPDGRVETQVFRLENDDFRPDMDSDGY

## CC(C)Cn1c(=O)n(C)c(=O)c2[nH]cnc21 [IBMX]
  IC50: 4.8 mM
